According to the supplement of paper PMC10307832:

What was measured:
Assay in all cases: relative viability (nuclei count vs DMSO), 5 days (fraction); higher = more cells survive
[1] = compound: CS(=O)(=O)c1ccc(-c2cnc(N)c(C(=O)Nc3ccccc3)n2)cc1 [VE-821] + Cc1cc(Nc2cc(N3CCN(C)CC3)nc(Sc3ccc(NC(=O)C4CC4)cc3)n2)n[nH]1 [Tozasertib] (partner 0.1 µM)
In short: (§1)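 Cells from lung cancer lines were seeded into 1536-well plates and, one day later, dosed by pin tool. Treatments were either a single drug or a fixed dose of an anchor drug with five library-drug doses (not always all listed) in √10 steps. After 5 days, nuclei were stained in a one-step fixation (final 0.05% Triton X-100, 1% formaldehyde, 1 ug/ml Hoechst) and counted on 4× images, and relative viability is the treated-to-vehicle nuclei ratio, as the median of duplicate plates.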

[2] = compound: N#CC[C@H](C1CCCC1)n1cc(-c2ncnc3[nH]ccc23)cn1 [Ruxolitinib] + O=C(c1cc(Cc2n[nH]c(=O)c3ccccc23)ccc1F)N1CCN(C(=O)C2CC2)CC1 [Olaparib] (partner 8 µM)
In short: as §1

[3] = compound: N#CC[C@H](C1CCCC1)n1cc(-c2ncnc3[nH]ccc23)cn1 [Ruxolitinib] + CC(C)C[C@H](NC(=O)[C@H](Cc1ccccc1)NC(=O)c1cnccn1)B(O)O [Bortezomib] (partner 0.002 µM)
In short: as §1

[4] = compound: N#CC[C@H](C1CCCC1)n1cc(-c2ncnc3[nH]ccc23)cn1 [Ruxolitinib] + CS(=O)(=O)N1CCN(Cc2cc3nc(-c4cccc5[nH]ncc45)nc(N4CCOCC4)c3s2)CC1 [Pictilisib] (partner 1 µM)
In short: as §1

Row | Cell Line | relative viability ([1]; first compound 0.08 µM) | relative viability ([1]; first compound 0.253 µM) | relative viability ([1]; first compound 0.8 µM) | relative viability ([1]; first compound 2.53 µM) | relative viability ([1]; first compound 8 µM) | relative viability ([2]; first compound 0.253 µM) | relative viability ([2]; first compound 0.8 µM) | relative viability ([2]; first compound 2.53 µM) | relative viability ([2]; first compound 8 µM) | relative viability ([3]; first compound 0.08 µM) | relative viability ([3]; first compound 0.253 µM) | relative viability ([3]; first compound 0.8 µM) | relative viability ([3]; first compound 2.53 µM) | relative viability ([3]; first compound 8 µM) | relative viability ([4]; first compound 0.08 µM) | relative viability ([4]; first compound 0.253 µM) | relative viability ([4]; first compound 0.8 µM) | relative viability ([4]; first compound 2.53 µM) | relative viability ([4]; first compound 8 µM) | relative viability ([2]; first compound 0.08 µM)
1 | COR-L 105 | 0.37 | 0.373 | 0.374 | 0.284 | 0.333 | 0.614 | 0.652 | 0.614 | 0.606 | 0.925 | 0.949 | 0.826 | 0.536 | 0.647 | 0.379 | 0.389 | 0.407 | 0.344 | 0.334 | 
2 | NCI-H2342 | 0.434 | 0.489 | 0.45 | 0.415 | 0.365 | 0.533 | 0.413 | 0.498 | 0.398 |  |  |  |  |  |  |  |  |  |  | 0.46
3 | SW 900 | 0.604 | 0.493 | 0.38 | 0.333 | 0.248 | 0.944 | 0.955 | 1.05 | 0.91 |  |  |  |  |  |  |  |  |  |  | 0.805
4 | LOU-NH91 | 0.69 | 0.666 | 0.665 | 0.701 | 0.54 | 0.895 | 0.97 | 0.853 | 0.813 | 0.52 | 0.463 | 0.492 | 0.47 | 0.534 | 0.477 | 0.493 | 0.524 | 0.514 | 0.56 | 0.757
5 | HCC-15 | 0.451 | 0.361 | 0.322 | 0.347 | 0.309 | 0.692 | 0.721 | 0.537 | 0.454 | 1.08 | 1.05 | 1.01 | 0.99 | 0.926 | 0.701 | 0.77 | 0.789 | 0.703 | 0.737 | 0.72
6 | A-427 | 0.231 | 0.186 | 0.217 | 0.192 | 0.144 | 0.732 | 0.739 | 0.67 | 0.632 | 0.983 | 0.955 | 0.985 | 1.06 | 0.782 | 0.742 | 0.749 | 0.773 | 0.371 | 0.629 | 0.749
7 | SW 1573 | 0.164 | 0.174 | 0.181 | 0.216 | 0.197 | 0.586 | 0.473 | 0.416 | 0.352 | 0.981 | 1.04 | 1.01 | 0.939 | 0.896 | 0.495 | 0.425 | 0.546 | 0.445 | 0.429 | 0.518
8 | NCI-H2087 | 0.241 | 0.204 | 0.248 | 0.212 | 0.198 |  | 0.454 | 0.631 | 0.579 | 0.849 | 0.853 | 0.985 | 0.821 | 0.701 | 0.798 | 0.937 | 0.645 | 0.335 | 0.842 | 0.433
9 | LK-2 | 0.172 | 0.174 | 0.161 | 0.197 | 0.202 | 0.701 | 0.893 | 0.724 | 0.52 |  |  |  |  |  |  | 0.595 | 0.61 | 0.741 | 0.673 | 0.553
